“Also recorded” adds a separate entry of the source. Marks after values point to notes of the source that are not given here.
System: KLK proteases in human skin extract
Experiment: Inhibition of protease activity in human skin extract
Assay type: biochemical
Description: Materials: The peptide substrates PS-01 (YRSR-pNA Tyr-Arg-Ser-Arg-pNA) (SEQ ID NO. 1) and PS-02 (Lys-His-Leu-Tyr-pNA) (SEQ ID NO. 2) were synthesized by Zamboni Chemical Solutions (Montreal, Canada). Human epidermis samples were obtained from Biopredic (Saint-Grégoire, France). The BCA protein assay kit was bought from VWR.
Preparation of skin extract: The epidermis was frozen and lyophilized. A sample of 15 mg lyophilized epidermis was immersed in 1 mL high salt buffer (100 mM Tris, 5 mM EDTA, 2M KCl, pH 8), frozen twice in dry ice and thawed. After incubation overnight at 4° C. and addition of six 2.4 mm metal beads, the sample was homogenized in a Bertin Precellys Homogenizer (Atkinson, NH) three times at […] for 20 seconds each and cooled in between for 30 seconds. After centrifugation at maximal speed in a desktop minifuge, the protein concentration of the supernatant was determined by BCA assay (˜0.5 mg/mL).
Inhibition of protease activity in skin extract: Stock solutions of 200, 66, 22 and 0 μM of the tested compound in DMSO were prepared. Substrate stocks of 1100 μM PS-01 and PS-02 were prepared by dissolving in water. The wells of a 384 well plate was filled with 50 μL 2× assay buffer (see above) and then 45 μL substrate stock and 5 μL of the test compound were added. The reaction was started by addition of 10 μL skin extract for the substrate PS-02 and 5 μL for the substrate PS-01. The substrate hydrolysis was monitored in multi-well plate reader at 405 nm.
Chromogenic substrate cleavage progressions of Compounds 1.001, 1.002, and 14 were tested according to human stratum corneum extract assay of Example 4 using KLK5 and KLK7 preferred chromogenic peptide substrates (PS-01 and PS-02). The proteolytic cleavage of KLK5 selective substrate in skin extract by Compounds 1.001, 1.002, and 14 are compared and shown in FIGS. 4A-4D. NSK refers to extract from skin freshly prepared; and OSK refers to extract from skin post freeze thaw.

[1] = human skin extract, Conc 3.3 μM

CS(=O)(=O)c1cc(CO)ccc1-c1nc2cc3c(cc2c(=O)o1)OCCO3 [Compound 1.001, 2-(4-(Hydroxymethyl)-2-(methylsulfonyl)phenyl)-7,8-dihydro-4H-[1,4]dioxino[2′,3′:4,5]benzo[1,2-d][1,3]oxazin-4-one]
Inhibition of proteolytic activity of skin extract, in words (compared to compounds 14 and 1.002, FIGS. 4A-4D (NSK), KLK5 selective substrate): more potent inhibition of proteolytic activity; also recorded: more potent inhibitor of the proteolytic activity of skin extract
Initial rate of proteolytic activity (human skin extract, Conc 1 μM): 0.04* Absorbance405/min
Initial rate of substrate hydrolysis (human skin extract, Conc 1 μM): 0.02* Absorbance405/min
Initial rate of proteolytic activity [1]: 0.07* Absorbance405/min
Initial rate of substrate hydrolysis [1]: 0.04* Absorbance405/min
Rate in Skin Assay (human skin extract, compound concentration not given): 0.004* Absorbance405/min
